According to patent publication US9725445B2, “Cycloalkyl nitrile pyrazolo pyridones as Janus kinase inhibitors” (Merck Sharp & Dohme Corp., priority 2013, dated 2017):

Biological target: JAK1 (Homo sapiens (Human), UniProt P23458)
Test: Jak biochemical HTRF assay, JAK1
Conditions: HTRF biochemical assay, recombinant GST-tagged catalytic domain; read-out: JAK1 IC50
Protocol: Jak Biochemical HTRF Assay Protocol
The ability of compounds to inhibit the activity of JAK1, JAK2, JAK3, and Tyk2 was measured using a recombinant purified GST-tagged catalytic domain for each enzyme (Invitrogen JAK1 #M4290, JAK2 #M4290, JAK3 #M4290, Tyk2 #M4290) in an HTRF format biochemical assay. […] The basic assay protocol is as follows: First, 250 nL of diluted compounds in DMSO were dispensed into the wells of a dry 384-well Black plate (Greiner #781076) using a Labcyte Echo 555 acoustic dispenser. Subsequent reagent additions employed an Agilent Bravo. […] After equilibration, 2 μL of 10×ATP in 1× assay buffer was added to initiate the kinase reaction and the plates were shaken and then incubated at room temperature for 120 minutes. […] Plates were shaken and centrifuged and then incubated 60 minutes at room temperature and then read on a Perkin Elmer Envision (λex=337 nm, λem=665 and 615 nm, TRF delay time=20 μs). HTRF signal=10,000*665 nm reading/615 nm reading. After normalization to untreated controls, the percent inhibition of the HTRF signal at each compound concentration was calculated. The plot of percent inhibition versus the log of compound concentration was fit with a 4-parameter dose response equation to calculate IC50 values.
Final Reaction Conditions were:
Examples of the instant invention were evaluated in JAK1 and JAK2 in vitro binding assays.

Sequence of JAK1 (P23458 875-1153): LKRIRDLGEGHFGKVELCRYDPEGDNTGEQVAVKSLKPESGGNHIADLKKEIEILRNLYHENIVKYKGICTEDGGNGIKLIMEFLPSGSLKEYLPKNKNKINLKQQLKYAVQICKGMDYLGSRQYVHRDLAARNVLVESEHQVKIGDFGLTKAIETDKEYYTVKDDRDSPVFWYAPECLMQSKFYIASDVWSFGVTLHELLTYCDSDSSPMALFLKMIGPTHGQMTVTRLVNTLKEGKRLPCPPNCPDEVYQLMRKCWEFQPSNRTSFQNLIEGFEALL

SMILES: CC(C)(C)N1Cc2cc(Nc3nn([C@H]4CCCCC[C@@H]4C#N)c4cc[nH]c(=O)c34)ccc2S1(=O)=O (single isomer, unassigned) [Example 3-176, (1S,2S or 1R,2R)-2-{3-[(2-tert-butyl-1,1-dioxido-2,3-dihydro-1,2-benzisothiazol-5-yl)amino]-4-oxo-4,5-dihydro-1H-pyrazolo[4,3-c]pyridin-1-yl}cycloheptanecarbonitrile]
- IC50: 1.9 nM

SMILES: CC(c1ccc(Nc2nn([C@H]3CCCC[C@@H]3C#N)c3cc[nH]c(=O)c23)cc1)n1nccn1 (single isomer, unassigned) [Example 15-21, (1S,2S)-2-[4-oxo-3-({4-[(1S or 1R)-1-(2H-1,2,3-triazol-2-yl)ethyl]phenyl}amino)-4,5-dihydro-1H-pyrazolo[4,3-c]pyridin-1-yl]cyclohexanecarbonitrile]
- IC50: 0.39 nM

SMILES: CC(C)N1Cc2cc(Nc3nn([C@H]4CCCC[C@@H]4C#N)c4cc[nH]c(=O)c34)ccc2C1=O [Example 3-153, (1S,2S)-2-(3-{[2-(1-methylethyl)-1-oxo-2,3-dihydro-1H-isoindol-5-yl]amino}-4-oxo-4,5-dihydro-1H-pyrazolo[4,3-c]pyridin-1-yl)cyclohexanecarbonitrile]
- IC50: 0.057 nM

SMILES: CC(C)OC(=O)C(C)(C)C(O)(c1ccc(Nc2nn([C@H]3CCCC[C@@H]3C#N)c3cc[nH]c(=O)c23)cc1)C(F)(F)F (single isomer, unassigned) [Example 3-119, (R or S) Isopropyl 3-(4-((1-((1S,2S)-2-cyanocyclohexyl)-4-oxo-4,5-dihydro-1H-pyrazolo[4,3-c]pyridin-3-yl)amino)phenyl)-4,4,4-trifluoro-3-hydroxy-2,2-dimethylbutanoate]
- IC50: 5.3 nM

SMILES: CC1NCc2cc(Nc3nn([C@H]4CCCC[C@@H]4C#N)c4cc[nH]c(=O)c34)ccc21 (single isomer, unassigned) [Example 12-5, (1S,2S)-2-(3-{[(1R or 1S)-1-methyl-2,3-dihydro-1H-isoindol-5-yl]amino}-4-oxo-4,5-dihydro-1H-pyrazolo[4,3-c]pyridin-1-yl)cyclohexanecarbonitrile]
- IC50: 0.61 nM

SMILES: N#C[C@@H]1CCCC[C@H]1n1nc(Nc2cccc(CNC(=O)c3cnco3)c2)c2c(=O)[nH]ccc21 [Example 3-13, N-[3-({1-[(1R,2R)-2-cyanocyclohexyl]-4-oxo-4,5-dihydro-1H-pyrazolo[4,3-c]pyridin-3-yl}amino)benzyl]-1,3-oxazole-5-carboxamide]
- IC50: 14 nM

SMILES: N#C[C@H]1CCCC[C@@H]1n1nc(Nc2ccc(C3(C(F)(F)F)CCCN3)cc2)c2c(=O)[nH]ccc21 (single isomer, unassigned) [Example 15-62, (1S,2S)-2-[4-oxo-3-({4-[(2S or 2R)-2-(trifluoromethyl)pyrrolidin-2-yl]phenyl}amino)-4,5-dihydro-1H-pyrazolo[4,3-c]pyridin-1-yl]cyclohexanecarbonitrile]
- IC50: 0.11 nM

SMILES: C[C@H](N[C@H]1CC[C@H](n2nc(Nc3ccc(C(F)(F)F)cc3)c3c(=O)[nH]ccc32)[C@@H](C#N)C1)C1CC1 [Example 5-12, (1S,2S,5S)-5-(((S)-1-cyclopropylethyl)amino)-2-(4-oxo-3-((4-(trifluoromethyl)phenyl)amino)-4,5-dihydro-1H-pyrazolo[4,3-c]pyridin-1-yl)cyclohexanecarbonitrile]
- IC50: 1.2 nM

SMILES: N#C[C@H]1CCC[C@@H]1n1nc(Nc2ccc(C3(C(F)(F)F)CCCCN3)cc2)c2c(=O)[nH]ccc21 (single isomer, unassigned) [Example 15-71, (1S,2S)-2-[4-oxo-3-({4-[(2S or 2R)-2-(trifluoromethyl)piperidin-2-yl]phenyl}amino)-4,5-dihydro-1H-pyrazolo[4,3-c]pyridin-1-yl]cyclopentanecarbonitrile]
- IC50: 0.069 nM

SMILES: CC(C)(C)OC(=O)C1CCC(N2Cc3cc(Nc4nn([C@H]5CCCC[C@@H]5C#N)c5cc[nH]c(=O)c45)ccc3C2=O)CC1 (single isomer, unassigned) [Example 3-135, (cis or trans)tert-butyl 4-(5-((1-((1S,2S)-2-cyanocyclohexyl)-4-oxo-4,5-dihydro-1H-pyrazolo[4,3-c]pyridin-3-yl)amino)-1-oxoisoindolin-2-yl)cyclohexanecarboxylate]
- IC50: 0.22 nM

SMILES: CC1(C)C(O)c2cc(Nc3nn([C@H]4CCCC[C@@H]4C#N)c4cc[nH]c(=O)c34)ccc2S1(=O)=O (single isomer, unassigned) [Example 3-173, (1S,2S)-2-(3-{[(3R or 3S)-3-hydroxy-2,2-dimethyl-1,1-dioxido-2,3-dihydro-1-benzothiophen-5-yl]amino}-4-oxo-4,5-dihydro-1H-pyrazolo[4,3-c]pyridin-1-yl)cyclohexanecarbonitrile]
- IC50: 0.094 nM

SMILES: CN(C)S(=O)(=O)c1ccc(Nc2nn([C@H]3CCCC[C@@H]3C#N)c3cc[nH]c(=O)c23)cc1CN [Example 8-1, 2-(Aminomethyl)-4-((1-((1S,2S)-2-cyanocyclohexyl)-4-oxo-4,5-dihydro-1H-pyrazolo[4,3-c]pyridin-3-yl)amino)-N,N-dimethylbenzenesulfonamide]
- IC50: 0.78 nM

SMILES: N#C[C@H]1CCCC[C@@H]1n1nc(Nc2ccc3c(c2)CC2(CC2)C3(O)C(F)(F)F)c2c(=O)[nH]ccc21 (single isomer, unassigned) [Example 3-124, (1S,2S)-2-(3-(((R or S)-1′-hydroxy-1′-(trifluoromethyl)-1′,3′-dihydrospiro[cyclopropane-1,2′-inden]-5′-yl)amino)-4-oxo-4,5-dihydro-1H-pyrazolo[4,3-c]pyridin-1-yl)cyclohexanecarbonitrile]
- IC50: 0.23 nM

SMILES: COCC(C)(C)CN1Cc2cc(Nc3nn([C@@H]4CCCCC[C@H]4C#N)c4cc[nH]c(=O)c34)ccc2S1(=O)=O (single isomer, unassigned) [Example 15-46, (1R,2R or 1S,2S)-2-(3-{[2-(3-methoxy-2,2-dimethylpropyl)-1,1-dioxido-2,3-dihydro-1,2-benzisothiazol-5-yl]amino}-4-oxo-4,5-dihydro-1H-pyrazolo[4,3-c]pyridin-1-yl)cycloheptanecarbonitrile]
- IC50: 0.076 nM

SMILES: CC(C)C(c1ccc(Nc2nn([C@H]3CCCC[C@@H]3C#N)c3cc[nH]c(=O)c23)cc1)n1nccn1 (single isomer, unassigned) [Example 15-31, (1S,2S)-2-[3-({4-[(1R or 1S)-2-methyl-1-(2H-1,2,3-triazol-2-yl)propyl]phenyl}amino)-4-oxo-4,5-dihydro-1H-pyrazolo[4,3-c]pyridin-1-yl]cyclohexanecarbonitrile]
- IC50: 0.25 nM

SMILES: N#C[C@H]1CCCC[C@@H]1n1nc(Nc2ccc([C@]3(O)CC[C@@H](C(=O)O)CC3)cc2)c2c(=O)[nH]ccc21 (racemic) [Example 17-1, (1R,4S and 1S,4R)-4-(4-(1-((1S,2S)-2-Cyanocyclohexyl)-4-oxo-4,5-dihydro-1H-pyrazolo[4,3-c]pyridin-3-ylamino)phenyl)-4-hydroxycyclohexanecarboxylic acid]
- IC50: 0.095 nM

SMILES: CN(C)C(c1ccc(Nc2nn([C@H]3CCCC[C@@H]3C#N)c3cc[nH]c(=O)c23)cc1)C(F)(F)F (single isomer, unassigned) [Example 9-3, (1S,2S)-2-(3-(4-((S or R)-1-(Dimethylamino)-2,2,2-trifluoroethyl)phenylamino)-4-oxo-4,5-dihydropyrazolo[4,3-c]pyridin-1-yl)cyclohexanecarbonitrile]
- IC50: 0.16 nM

SMILES: CC(C)S(=O)(=O)c1ccc(Nc2nn([C@H]3CCCC[C@@H]3C#N)c3cc[nH]c(=O)c23)cc1 [Example 3-141, (1S,2S)-2-[3-({4-[(1-methylethyl)sulfonyl]phenyl}amino)-4-oxo-4,5-dihydro-1H-pyrazolo[4,3-c]pyridin-1-yl]cyclohexanecarbonitrile]
- IC50: 0.15 nM

SMILES: Cc1cc(Nc2nn([C@H]3CCCC[C@@H]3C#N)c3cc[nH]c(=O)c23)ccc1C(C(C)C)n1nccn1 (single isomer, unassigned) [Example 15-36, (1S,2S)-2-[3-({3-methyl-4-[(1R or 1S)-2-methyl-1-(2H-1,2,3-triazol-2-yl)propyl]phenyl}amino)-4-oxo-4,5-dihydro-1H-pyrazolo[4,3-c]pyridin-1-yl]cyclohexanecarbonitrile]
- IC50: 0.46 nM

SMILES: N#C[C@@H]1CCCC[C@@H]1n1nc(Nc2ccc(F)cc2)c2c(=O)[nH]ccc21 (racemic) [Example 1-1, (cis)-2-{3-[(4-Fluorophenyl)amino]-4-oxo-4,5-dihydro-1H-pyrazolo[4,3-c]pyridin-1-yl}cyclohexanecarbonitrile]
- IC50: 2.5 nM

SMILES: N#C[C@H]1CCCC[C@@H]1n1nc(Nc2ccc3c(c2)C(O)(CO)CCS3(=O)=O)c2c(=O)[nH]ccc21 (stereo partly drawn) [Example 3-48, (1S,2S)-2-(3-{[4-hydroxy-4-(hydroxymethyl)-1,1-dioxido-3,4-dihydro-2H-thiochromen-6-yl]amino}-4-oxo-4,5-dihydro-1H-pyrazolo[4,3-c]pyridin-1-yl)cyclohexanecarbonitrile]
- IC50: 18 nM

SMILES: CC1NCc2cc(Nc3nn([C@H]4CCCC[C@@H]4C#N)c4cc[nH]c(=O)c34)ccc21 (mixture of isomers) [Example 12-3, (1S,2S)-2-(3-{[(1S and 1R)-1-methyl-2,3-dihydro-1H-isoindol-5-yl]amino}-4-oxo-4,5-dihydro-1H-pyrazolo[4,3-c]pyridin-1-yl)cyclohexanecarbonitrile]
- IC50: 0.81 nM
